Laboratory results reported in PubChem BioAssay AID1259407 (Chemical Carcinogenesis Research Information System (CCRIS), 2018).
The source made the active and inactive calls. How the calls were made is not given here.

System: CCRIS mutagenicity, Ames/micronucleus/aberration tests
Assay: CCRIS mutagenicity studies
[1] = Test System: AMES SALMONELLA TYPHIMURIUM, Strain/Indicator: TA98, Metabolic Activation: NONE, Method: PREINCUBATION
[2] = Test System: AMES SALMONELLA TYPHIMURIUM, Strain/Indicator: TA100, Metabolic Activation: NONE, Method: PREINCUBATION
[3] = End Point: IN VITRO CHROMOSOMAL ABERRATIONS, Test System: CHINESE HAMSTER OVARY CELLS, Metabolic Activation: NONE
[4] = End Point: IN VITRO CHROMOSOMAL ABERRATIONS, Test System: CHINESE HAMSTER OVARY CELLS, Metabolic Activation: RAT, LIVER, S-9, AROCLOR 1254
[5] = Test System: AMES SALMONELLA TYPHIMURIUM, Strain/Indicator: TA97, Metabolic Activation: HAMSTER, LIVER, S-9, AROCLOR 1254 (10 OR 30%), Method: PREINCUBATION
[6] = Test System: AMES SALMONELLA TYPHIMURIUM, Strain/Indicator: TA97, Metabolic Activation: NONE, Method: PREINCUBATION
[7] = Test System: AMES SALMONELLA TYPHIMURIUM, Strain/Indicator: TA97, Metabolic Activation: RAT, LIVER, S-9, AROCLOR 1254 (10 OR 30%), Method: PREINCUBATION
[8] = Test System: AMES SALMONELLA TYPHIMURIUM, Strain/Indicator: TA98, Metabolic Activation: HAMSTER, LIVER, S-9, AROCLOR 1254 (10 OR 30%), Method: PREINCUBATION
[9] = Test System: AMES SALMONELLA TYPHIMURIUM, Strain/Indicator: TA98, Metabolic Activation: RAT, LIVER, S-9, AROCLOR 1254 (10 OR 30%), Method: PREINCUBATION
[10] = Test System: AMES SALMONELLA TYPHIMURIUM, Strain/Indicator: TA100, Metabolic Activation: HAMSTER, LIVER, S-9, AROCLOR 1254 (10%), Method: PREINCUBATION
[11] = Test System: AMES SALMONELLA TYPHIMURIUM, Strain/Indicator: TA100, Metabolic Activation: RAT, LIVER, S-9, AROCLOR 1254 (10%), Method: PREINCUBATION
[12] = Test System: AMES SALMONELLA TYPHIMURIUM, Strain/Indicator: TA1535, Metabolic Activation: HAMSTER, LIVER, S-9, AROCLOR 1254 (10 OR 30%), Method: PREINCUBATION
[13] = Test System: AMES SALMONELLA TYPHIMURIUM, Strain/Indicator: TA1535, Metabolic Activation: NONE, Method: PREINCUBATION
[14] = Test System: AMES SALMONELLA TYPHIMURIUM, Strain/Indicator: TA1535, Metabolic Activation: RAT, LIVER, S-9, AROCLOR 1254 (10 OR 30%), Method: PREINCUBATION
[15] = Test System: AMES SALMONELLA TYPHIMURIUM, Strain/Indicator: TA1537, Metabolic Activation: HAMSTER, LIVER, S-9, AROCLOR 1254 (10%), Method: PREINCUBATION
[16] = Test System: AMES SALMONELLA TYPHIMURIUM, Strain/Indicator: TA1537, Metabolic Activation: NONE, Method: PREINCUBATION

SMILES	mutagenic call [1]	mutagenic call [2]	mutagenic call [3]	mutagenic call [4]	mutagenic call [5]	mutagenic call [6]	mutagenic call [7]	mutagenic call [8]	mutagenic call [9]	mutagenic call [10]	mutagenic call [11]	mutagenic call [12]	mutagenic call [13]	mutagenic call [14]	mutagenic call [15]	mutagenic call [16]	also measured
CC(=O)Nc1cccc2cccnc12	inactive; negative	inactive; negative															mutagenic call (Test System: AMES SALMONELLA TYPHIMURIUM, Strain/Indicator: TA98, Metabolic Activation: RAT, LIVER, S-9, KANECHLOR 500, Method: PREINCUBATION): inactive; negative; mutagenic call (Test System: AMES SALMONELLA TYPHIMURIUM, Strain/Indicator: TA100, Metabolic Activation: RAT, LIVER, S-9, KANECHLOR 500, Method: PREINCUBATION): active; positive; mutagenic call (Test System: AMES SALMONELLA TYPHIMURIUM, Strain/Indicator: TA100, Metabolic Activation: RAT, LIVER, S-9, PHENOBARBITAL AND 5,6-BENZOFLAVONE, Method: PREINCUBATION): active; positive; mutagenic call (Test System: AMES SALMONELLA TYPHIMURIUM, Strain/Indicator: TA100, Metabolic Activation: S-9, Method: PREINCUBATION): active; positive
CC(C)CCNc1snc2ccccc12																	mutagenic call (Test System: AMES SALMONELLA TYPHIMURIUM, Strain/Indicator: TA98, Metabolic Activation: NONE, Method: STANDARD PLATE): inactive; negative; mutagenic call (Test System: AMES SALMONELLA TYPHIMURIUM, Strain/Indicator: TA98, Metabolic Activation: S-9, Method: STANDARD PLATE): inactive; negative; mutagenic call (Test System: AMES SALMONELLA TYPHIMURIUM, Strain/Indicator: TA100, Metabolic Activation: NONE, Method: STANDARD PLATE): inactive; negative; mutagenic call (Test System: AMES SALMONELLA TYPHIMURIUM, Strain/Indicator: TA100, Metabolic Activation: S-9, Method: STANDARD PLATE): inactive; negative; mutagenic call (Test System: AMES SALMONELLA TYPHIMURIUM, Strain/Indicator: TA1535, Metabolic Activation: NONE, Method: STANDARD PLATE): inactive; negative; mutagenic call (Test System: AMES SALMONELLA TYPHIMURIUM, Strain/Indicator: TA1535, Metabolic Activation: S-9, Method: STANDARD PLATE): inactive; negative; mutagenic call (Test System: AMES SALMONELLA TYPHIMURIUM, Strain/Indicator: TA1537, Metabolic Activation: NONE, Method: STANDARD PLATE): inactive; negative; mutagenic call (Test System: AMES SALMONELLA TYPHIMURIUM, Strain/Indicator: TA1537, Metabolic Activation: S-9, Method: STANDARD PLATE): inactive; negative
C=C1C/C(=C/C)C(=O)O[C@@H]2CCN3CC=C(COC(=O)[C@@]1(O)CO)[C@H]23	inactive; negative	inactive; negative	inactive; negative	active; positive; very high frequencies of aberrations were induced in the 25 cells coun	inactive; negative	inactive; negative	inactive; negative	inactive; negative	inactive; negative	inactive; negative	inactive; negative	inactive; negative	inactive; negative	inactive; negative			mutagenic call (Test System: AMES SALMONELLA TYPHIMURIUM, Strain/Indicator: TA100, Metabolic Activation: HAMSTER, LIVER, S-9, AROCLOR 1254 (30%), Method: PREINCUBATION): active; positive; mutagenic call (Test System: AMES SALMONELLA TYPHIMURIUM, Strain/Indicator: TA100, Metabolic Activation: RAT, LIVER, S-9, AROCLOR 1254 (30%), Method: PREINCUBATION): active; positive
COc1ccc(C(Cl)=C(c2ccc(OC)cc2)c2ccc(OC)cc2)cc1	inactive; negative	inactive; negative			inactive; negative	inactive; negative	inactive; negative	inactive; negative	inactive; negative			inactive; negative	inactive; negative	inactive; negative	inactive; negative	inactive; negative	mutagenic call (Test System: AMES SALMONELLA TYPHIMURIUM, Strain/Indicator: TA100, Metabolic Activation: HAMSTER, LIVER, S-9, AROCLOR 1254 (10 OR 30%), Method: PREINCUBATION): inactive; negative; mutagenic call (Test System: AMES SALMONELLA TYPHIMURIUM, Strain/Indicator: TA100, Metabolic Activation: RAT, LIVER, S-9, AROCLOR 1254 (10 OR 30%), Method: PREINCUBATION): inactive; negative; mutagenic call (Test System: AMES SALMONELLA TYPHIMURIUM, Strain/Indicator: TA1537, Metabolic Activation: HAMSTER, LIVER, S-9, AROCLOR 1254 (30%), Method: PREINCUBATION): inactive; negative; mutagenic call (Test System: AMES SALMONELLA TYPHIMURIUM, Strain/Indicator: TA1537, Metabolic Activation: RAT, LIVER, S-9, AROCLOR 1254 (10 OR 30%), Method: PREINCUBATION): inactive; negative
Nc1ccc(O)c(N)c1	inactive; negative	inactive; negative	inactive; negative	inactive; negative						inactive; negative	inactive; negative		inactive; negative		inactive; negative	inactive; negative	mutagenic call (Test System: AMES SALMONELLA TYPHIMURIUM, Strain/Indicator: TA98, Metabolic Activation: HAMSTER, LIVER, S-9, AROCLOR 1254 (10%), Method: PREINCUBATION): active; positive; mutagenic call (Test System: AMES SALMONELLA TYPHIMURIUM, Strain/Indicator: TA98, Metabolic Activation: RAT, LIVER, S-9, AROCLOR 1254 (10%), Method: PREINCUBATION): active; positive; mutagenic call (Test System: AMES SALMONELLA TYPHIMURIUM, Strain/Indicator: TA1535, Metabolic Activation: HAMSTER, LIVER, S-9, AROCLOR 1254 (10%), Method: PREINCUBATION): inactive; negative; mutagenic call (Test System: AMES SALMONELLA TYPHIMURIUM, Strain/Indicator: TA1535, Metabolic Activation: RAT, LIVER, S-9, AROCLOR 1254 (10%), Method: PREINCUBATION): inactive; negative; mutagenic call (Test System: AMES SALMONELLA TYPHIMURIUM, Strain/Indicator: TA1537, Metabolic Activation: RAT, LIVER, S-9, AROCLOR 1254 (10%), Method: PREINCUBATION): inactive; negative; mutagenic call (Test System: MOUSE LYMPHOMA, Strain/Indicator: L5178Y (TK+/TK-), Metabolic Activation: NONE, Method: SUSPENSION/PLATE): active; positive
